Read-outs that look alike come from different tables or passages of the source.
How the values were obtained:
Test in all cases: Cell surface BCMA by FACS
Assay type in all cases: cell-based, human
[1] = system: CA46 cells (Burkitt's Lymphoma); conditions: for EC50: Homo sapiens
Experimental: (§1) […] cell lines, comprising 9 subtypes of lymphomas (see Table 1), were seeded at 1×10^5 cells/well in a total volume of 250 μl into a 96-well plate. The cells were cultured in RPMI medium supplemented with 10% FCS. Compound (22) was added to the cell cultures at a concentration of 10 μM, 1 μM, 100 nM, 10 nM, 1 nM, 100 pM, 10 pM, 1 pM, and 100 fM, and cell lines (8 from Hadassah Medical Center, 31 from Eurofins) were incubated at 37° C. for 24 hours with Compound (22). Following incubation, the cells were collected and BCMA levels were evaluated on the cell surface for cell-bound BCMA. Cells were stained with an anti-BCMA antibody (PE anti-human 19F2 BCMA, Biolegend), and cell surface BCMA levels were determined by FACS analysis (Mean Fluorescence Intensity. Soluble BCMA levels were analyzed by ELISA (Human BCMA/TNFRSF17 DuoSet kit: R&D Systems).

[2] = system: MC-116 cells (B-cell Lymphoma); conditions: for EC50: Homo sapiens
Experimental: as §1

[3] = system: Jeko-1 cells (Mantle Cell Lymphoma); conditions: for EC50: Homo sapiens
Experimental: as §1

[4] = system: BCP-1 cells (B-cell Lymphoma); conditions: for EC50: Homo sapiens
Experimental: as §1

[5] = system: H9 cells (Cutaneous T-cell Lymphoma); conditions: for EC50: Homo sapiens
Experimental: as §1

[6] = system: MHHH-PREB-1 cells (B-cell Lymphoma); conditions: for EC50: Homo sapiens, B-cell
Experimental: as §1

[7] = system: Daudi cells (Burkitt's Lymphoma); conditions: for EC50: Homo sapiens
Experimental: as §1

[8] = system: EB-2 cells (Burkitt's Lymphoma); conditions: for EC50: Homo sapiens
Experimental: as §1

[9] = system: BC-1 cells (B-cell Lymphoma); conditions: for EC50: Homo sapiens
Experimental: as §1

[10] = system: CRO-AP2 cells (B-cell Lymphoma); conditions: for EC50: Homo sapiens
Experimental: as §1

[11] = system: EB-3 cells (Burkitt's Lymphoma); conditions: for EC50: Homo sapiens
Experimental: as §1

[12] = system: U937 cells (Histiocytic Lymphoma); conditions: for EC50: Homo sapiens
Experimental: as §1

RS411 cells (B-ALL) = system: RS411 cells (B-ALL)
Experimental: (§2) Cells were seeded at 1×10^4 cells/well in a total volume of 250 μl into a 96-well plate. The cells were cultured in RPMI supplemented with 10% FCS.
(§3) The tested compounds (Compound 1 and Compound 22) were added to the cell cultures at concentrations of: 0, 10, 1, 0.5, 0.1, 0.01, 0.001 μM ([…], 10 nM, 100 nM, 500 nM, 1000 nM, and 10000 nM). Following 24 hours of incubation at 37° C., the cells were collected and stained with anti-BCMA antibody and immediately analyzed by FACS.
as §1

018Z cells (B-ALL) = system: 018Z cells (B-ALL)
Experimental: as §2, §3, §1

[13] = system: SUDHL-4 (Haddasah) cells (DLBCL)
Experimental: as §2, §3, §1

Toledo cells (DLBCL) = system: Toledo cells (DLBCL)
Experimental: as §2, §3, §1

REH cells (B-ALL) = system: REH cells (B-ALL)
Experimental: as §2, §3, §1

[14] = system: SP49 cells (Mantle Cell Lymphoma)
Experimental: as §2, §3, §1

RC cells (DLBCL) = system: RC cells (DLBCL)
Experimental: as §2, §3, §1

SUDHL-6 cells (DLBCL) = system: SUDHL-6 cells (DLBCL)
Experimental: as §2, §3, §1

[15] = 24 h, read-out: BCMA (Mean Fluorescence Intensity) EC50

Cc1cccc2c1NC(=O)[C@@H](NC(=O)[C@H](CCC(F)(F)F)[C@H](CCC(F)(F)F)C(N)=O)N=C2c1cccc(F)c1 [Compound (22), (2R,3S)—N-((3S)-5-(3-fluorophenyl)-9-methyl-2-oxo-2,3-dihydro-1H-1,4-benzodiazepin-3-yl)-2,3-bis(3,3,3-trifluoropropyl)succinamide]
mBCMA (MFI) Fold Increase [1]: 5.5 fold
BCMA (Mean Fluorescence Intensity) 1 nM Compound (22) ([1]; 1 nM, 24 h): 6424
BCMA (Mean Fluorescence Intensity) 100 nM Compound (22) ([1]; 100 nM, 24 h): 13506
EC50 [1, 15]: 2.3 nM
EC50 ([1]; read-out: mBCMA (MFI) EC50): 2.3 nM
mBCMA (MFI) Fold Increase [2]: 4.2 fold
BCMA (Mean Fluorescence Intensity) 1 nM Compound (22) ([2]; 1 nM, 24 h): 915
BCMA (Mean Fluorescence Intensity) 100 nM Compound (22) ([2]; 100 nM, 24 h): 1850
EC50 ([2]; MC116, 24 h, read-out: BCMA (Mean Fluorescence Intensity) EC50): 1.9 nM
EC50 ([2]; MC116, read-out: mBCMA (MFI) EC50): 1.9 nM
EC50 ([3]; JeKo-1, read-out: mBCMA (MFI) EC50): 1.2 nM
EC50 ([3]; Jeko-1, 24 h, read-out: BCMA (Mean Fluorescence Intensity) EC50): 1.2 nM
mBCMA (MFI) Fold Increase ([3]; Jeko-1): 7.4 fold
BCMA (Mean Fluorescence Intensity) 1 nM Compound (22) ([3]; Jeko-1, 1 nM, 24 h): 1654
BCMA (Mean Fluorescence Intensity) 100 nM Compound (22) ([3]; Jeko-1, 100 nM, 24 h): 2885
mBCMA (MFI) Fold Increase [4]: 2.9 fold
BCMA (Mean Fluorescence Intensity) 1 nM Compound (22) ([4]; 1 nM, 24 h): 398
BCMA (Mean Fluorescence Intensity) 100 nM Compound (22) ([4]; 100 nM, 24 h): 1159
cell-bound BCMA ([4]; FIG. 6A): increased cell-bound BCMA
EC50 [4, 15]: 45.6 nM
EC50 ([4]; read-out: mBCMA (MFI) EC50): 45.6 nM
mBCMA (MFI) Fold Increase [5]: 1.1 fold
BCMA (Mean Fluorescence Intensity) 1 nM Compound (22) ([5]; 1 nM, 24 h): 811
BCMA (Mean Fluorescence Intensity) 100 nM Compound (22) ([5]; 100 nM, 24 h): 900
EC50 [5, 15]: > 10 µM
EC50 ([5]; read-out: mBCMA (MFI) EC50): > 10 µM
mBCMA (MFI) Fold Increase [6]: 4.5 fold
BCMA (Mean Fluorescence Intensity) 1 nM Compound (22) ([6]; 1 nM, 24 h): 1363
BCMA (Mean Fluorescence Intensity) 100 nM Compound (22) ([6]; 100 nM, 24 h): 1830
EC50 [6, 15]: 1.7 nM
EC50 ([6]; read-out: mBCMA (MFI) EC50): 1.7 nM
mBCMA (MFI) Fold Increase [7]: 4.2 fold
BCMA (Mean Fluorescence Intensity) 1 nM Compound (22) ([7]; 1 nM, 24 h): 1421
BCMA (Mean Fluorescence Intensity) 100 nM Compound (22) ([7]; 100 nM, 24 h): 2242
cell-bound BCMA ([7]; FIG. 7A): increased cell-bound BCMA
EC50 [7, 15]: 4.9 nM
EC50 ([7]; read-out: mBCMA (MFI) EC50): 4.9 nM
mBCMA (MFI) Fold Increase [8]: 5.4 fold
BCMA (Mean Fluorescence Intensity) 1 nM Compound (22) ([8]; 1 nM, 24 h): 18536
BCMA (Mean Fluorescence Intensity) 100 nM Compound (22) ([8]; 100 nM, 24 h): 28188
EC50 ([8]; EB2, 24 h, read-out: BCMA (Mean Fluorescence Intensity) EC50): 0.98 nM
EC50 ([8]; EB2, read-out: mBCMA (MFI) EC50): 0.98 nM
mBCMA (MFI) Fold Increase [9]: 5.9 fold
BCMA (Mean Fluorescence Intensity) 1 nM Compound (22) ([9]; 1 nM, 24 h): 676
BCMA (Mean Fluorescence Intensity) 100 nM Compound (22) ([9]; 100 nM, 24 h): 3694
EC50 ([9]; BC1, 24 h, read-out: BCMA (Mean Fluorescence Intensity) EC50): 30.6 nM
EC50 ([9]; BC1, read-out: mBCMA (MFI) EC50): 30.6 nM
mBCMA (MFI) Fold Increase [10]: 6.6 fold
BCMA (Mean Fluorescence Intensity) 1 nM Compound (22) ([10]; 1 nM, 24 h): 855
BCMA (Mean Fluorescence Intensity) 100 nM Compound (22) ([10]; 100 nM, 24 h): 4782
EC50 [10, 15]: 5.6 nM
EC50 ([10]; read-out: mBCMA (MFI) EC50): 5.6 nM
mBCMA (MFI) Fold Increase [11]: 0.5 fold
BCMA (Mean Fluorescence Intensity) 1 nM Compound (22) ([11]; 1 nM, 24 h): 549
BCMA (Mean Fluorescence Intensity) 100 nM Compound (22) ([11]; 100 nM, 24 h): 449
EC50 [11, 15]: > 10 µM
EC50 ([11]; read-out: mBCMA (MFI) EC50): > 10 µM
mBCMA (MFI) Fold Increase [12]: 1.0 fold
BCMA (Mean Fluorescence Intensity) 1 nM Compound (22) ([12]; 1 nM, 24 h): 327
BCMA (Mean Fluorescence Intensity) 100 nM Compound (22) ([12]; 100 nM, 24 h): 328
EC50 ([12]; U-937, 24 h, read-out: BCMA (Mean Fluorescence Intensity) EC50): > 10 µM
EC50 ([12]; U-937, read-out: mBCMA (MFI) EC50): > 10 µM
mBCMA (MFI) Fold Increase (RS411 cells (B-ALL)): 0.9 fold
BCMA (Mean Fluorescence Intensity) 1 nM Compound (22) (RS411 cells (B-ALL); 1 nM, 24 h): 2273
BCMA (Mean Fluorescence Intensity) 100 nM Compound (22) (RS411 cells (B-ALL); 100 nM, 24 h): 2518
mBCMA (MFI) Fold Increase (018Z cells (B-ALL)): 0.9 fold
BCMA (Mean Fluorescence Intensity) 1 nM Compound (22) (018Z cells (B-ALL); 1 nM, 24 h): 4121
BCMA (Mean Fluorescence Intensity) 100 nM Compound (22) (018Z cells (B-ALL); 100 nM, 24 h): 4500
mBCMA (MFI) Fold Increase ([13]; SUDHL-4 (Haddasah)): 2.5 fold
BCMA (Mean Fluorescence Intensity) 1 nM Compound (22) ([13]; SUDHL-4, 1 nM, 24 h): 16100
BCMA (Mean Fluorescence Intensity) 100 nM Compound (22) ([13]; SUDHL-4, 100 nM, 24 h): 23438
mBCMA (MFI) Fold Increase (Toledo cells (DLBCL)): 3.2 fold
BCMA (Mean Fluorescence Intensity) 1 nM Compound (22) (Toledo cells (DLBCL); 1 nM, 24 h): 7541
BCMA (Mean Fluorescence Intensity) 100 nM Compound (22) (Toledo cells (DLBCL); 100 nM, 24 h): 9580
mBCMA (MFI) Fold Increase (REH cells (B-ALL)): 0.9 fold
BCMA (Mean Fluorescence Intensity) 1 nM Compound (22) (REH cells (B-ALL); 1 nM, 24 h): 5559
BCMA (Mean Fluorescence Intensity) 100 nM Compound (22) (REH cells (B-ALL); 100 nM, 24 h): 6463
mBCMA (MFI) Fold Increase [14]: 3.3 fold
BCMA (Mean Fluorescence Intensity) 1 nM Compound (22) ([14]; 1 nM, 24 h): 12697
BCMA (Mean Fluorescence Intensity) 100 nM Compound (22) ([14]; 100 nM, 24 h): 17462
mBCMA (MFI) Fold Increase (RC cells (DLBCL)): 2.9 fold
BCMA (Mean Fluorescence Intensity) 1 nM Compound (22) (RC cells (DLBCL); 1 nM, 24 h): 12970
BCMA (Mean Fluorescence Intensity) 100 nM Compound (22) (RC cells (DLBCL); 100 nM, 24 h): 15001
mBCMA (MFI) Fold Increase (SUDHL-6 cells (DLBCL)): 2.6 fold
BCMA (Mean Fluorescence Intensity) 1 nM Compound (22) (SUDHL-6 cells (DLBCL); 1 nM, 24 h): 22915
BCMA (Mean Fluorescence Intensity) 100 nM Compound (22) (SUDHL-6 cells (DLBCL); 100 nM, 24 h): 24812

— patent US20200085839A1, “COMBINATION OF IMMUNOTHERAPEUTICS AND BISFLUOROALKYL-1,4-BENZODIAZEPINONE COMPOUNDS FOR TREATING LYMPHOMAS” (Ayala Pharmaceuticals Inc., priority 2018, published 2020)
